Laboratory results reported in BindingDB's records for patent US20250154134 (Wigen Biomedicine Technology (Shanghai), 2025).

Target: Focal adhesion kinase 1 (Homo sapiens, UniProt Q05397)
Assay: Inhibitory Activity Assay
Procedure: A compound serially diluted with DMSO was mixed with a FAK recombinant protein. After the mixture was left to stand at room temperature for 10 min, a biotin-labeled TK substrate (TK) and ATP were added. […] The inhibition percentage and IC50 of the compound were calculated compared to the DMSO control group.

Focal adhesion kinase 1, sequence (Q05397 whole entry): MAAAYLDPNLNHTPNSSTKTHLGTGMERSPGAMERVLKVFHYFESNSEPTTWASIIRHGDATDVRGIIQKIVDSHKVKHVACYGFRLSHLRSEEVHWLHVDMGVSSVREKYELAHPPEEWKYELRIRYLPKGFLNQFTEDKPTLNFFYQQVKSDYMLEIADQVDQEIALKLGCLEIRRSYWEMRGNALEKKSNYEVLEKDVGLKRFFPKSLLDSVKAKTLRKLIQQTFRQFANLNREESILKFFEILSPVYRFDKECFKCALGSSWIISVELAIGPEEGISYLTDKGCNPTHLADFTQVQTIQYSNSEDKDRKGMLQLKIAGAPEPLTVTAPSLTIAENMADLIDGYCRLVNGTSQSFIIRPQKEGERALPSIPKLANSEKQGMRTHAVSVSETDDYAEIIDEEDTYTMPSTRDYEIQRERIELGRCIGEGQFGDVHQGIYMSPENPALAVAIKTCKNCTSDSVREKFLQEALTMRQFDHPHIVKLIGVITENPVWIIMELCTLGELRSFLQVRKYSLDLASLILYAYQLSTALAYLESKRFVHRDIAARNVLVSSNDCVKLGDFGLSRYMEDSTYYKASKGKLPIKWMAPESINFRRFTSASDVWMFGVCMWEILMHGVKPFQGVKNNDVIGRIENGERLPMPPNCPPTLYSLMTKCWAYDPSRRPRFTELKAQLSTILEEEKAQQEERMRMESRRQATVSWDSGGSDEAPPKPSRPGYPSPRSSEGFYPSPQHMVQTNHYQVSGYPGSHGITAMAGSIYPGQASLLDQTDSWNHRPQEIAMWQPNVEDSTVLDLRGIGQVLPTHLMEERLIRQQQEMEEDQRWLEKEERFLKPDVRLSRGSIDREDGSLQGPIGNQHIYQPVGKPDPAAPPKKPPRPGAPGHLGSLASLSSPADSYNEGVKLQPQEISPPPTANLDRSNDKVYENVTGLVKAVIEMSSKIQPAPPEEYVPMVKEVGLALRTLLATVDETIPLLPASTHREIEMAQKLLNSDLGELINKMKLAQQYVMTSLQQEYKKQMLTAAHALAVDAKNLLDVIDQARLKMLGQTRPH

## COc1cc(C(=O)NC2CCNCC2)ccc1Nc1ncc(C(F)(F)F)c(Oc2cccc3c2C(=O)N(C)C32CC2)n1 [US20250154134, Compound 35]
  IC50: < 0.02 µM

## COc1cc(C(=O)NC2(C)CCN(C)CC2)ccc1Nc1ncc(Cl)c(Oc2cccc3c2C(=O)N(C)C32CC2)n1 [US20250154134, Compound 118]
  IC50: < 0.02 µM

## COc1cc(C(=O)NC2CCN(C)CC2)c(F)cc1Nc1ncc(Cl)c(Oc2cccc3c2C(=O)N(C)C32CCCC2)n1 [US20250154134, Compound 209]
  IC50: < 0.02 µM

## COc1cc(C(=O)NC2CCN(C)CC2)ccc1Nc1ncc(C(F)(F)F)c(Oc2cccc3c2C(=O)N(C)C32CC2)n1 [US20250154134, Compound 3]
  IC50: < 0.02 µM
